The source of these data is US9051310B2, “Nicotinamide derivative or salt thereof” (FUJIFILM Corporation, priority 2011, dated 2015).

The target of this test is T1, glutathione S-transferase (GST)-linked full-length human Syk protein (Homo sapiens, UniProt P43405).
T1 construct: glutathione S-transferase (GST)-linked full-length human Syk protein; purchased Carna Biosciences; host or cells: Baculovirus expression system
Briefly: Syk enzyme assay. The test is classed as biochemical. Conditions: 0.83 nM Syk, time-resolved fluorescence; read-out: IC50 of Syk-inhibitory activity. The essentials: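 Phosphotyrosine on a biotin-peptide substrate (0.5 μM) was read by time-resolved fluorescence at 615 and 665 nm with Eu-anti-pTyr antibody and APC-streptavidin after 1 h EDTA stop.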
For the compound `CC[C@H](N)[C@@H](C)Nc1nc(Nc2cnc(OC)c(-n3nccn3)c2)c(C(N)=O)cc1F` [Example 2-279, 6-(((2R,3S)-3-aminopentan-2-yl)amino)-5-fluoro-2-((6-methoxy-5-(2H-1,2,3-triazol-2-yl)pyridin-3-yl)amino)nicotinamide], the IC50 was 10 to 50 nM. Consider `Cc1ncc(Nc2nc(N[C@@H](CN)Cc3ccccc3)c(F)cc2C(N)=O)cc1-n1nccn1` [Example 2-364, (R)-6-((1-amino-3-phenylpropan-2-yl)amino)-5-fluoro-2-((6-methyl-5-(2H-1,2,3-triazol-2-yl)pyridin-3-yl)amino)nicotinamide], for which the IC50 lay in the range of 50 to 100 nM. The result for `CCC[C@@H](Nc1nc(Nc2cnc(OCCOC)c(F)c2)c(C(N)=O)cc1F)[C@H](C)N` [Example 2-118, 6-(((2S,3R)-2-aminohexan-3-yl)amino)-5-fluoro-2-((5-fluoro-6-(2-methoxyethoxy)pyridin-3-yl)amino)nicotinamide] reads 50 to 100 nM. The result for `CCOC[C@@H](Nc1nc(Nc2cnc(C)c(-n3nccn3)c2)c(C(N)=O)cc1F)[C@H](C)N` [Example 2-183, 6-(((2S,3S)-3-amino-1-ethoxybutan-2-yl)amino)-5-fluoro-2-((6-methyl-5-(2H-1,2,3-triazol-2-yl)pyridin-3-yl)amino)nicotinamide] reads 50 to 100 nM; that for `CCn1ncc2cc(Nc3nc(N[C@H](Cc4ccccc4)[C@H](C)N)c(F)cc3C(N)=O)ccc21` [Example 2-423, 6-(((2R,3S)-3-amino-1-phenylbutan-2-yl)amino)-2-((1-ethyl-1H-indazol-5-yl)amino)-5-fluoronicotinamide], less than 10 nM; that for `COc1cc(Nc2nc(N[C@@H](CN)Cc3ccccc3)c(F)cc2C(N)=O)cc(OC)n1` [Example 2-418, (R)-6-((1-amino-3-phenylpropan-2-yl)amino)-2-((2,6-dimethoxypyridin-4-yl)amino)-5-fluoronicotinamide], 10 to 50 nM. The result for `COc1ccc([C@@H](Nc2nc(Nc3ccc4ncccc4c3)c(C(N)=O)cc2F)[C@H](C)N)cc1` [Example 2-337, 6-(((1R,2S)-2-amino-1-(4-methoxyphenyl)propyl)amino)-5-fluoro-2-(quinolin-6-ylamino)nicotinamide] reads 50 to 100 nM; that for `C[C@H](N)[C@H](Nc1nc(Nc2ccc(F)cc2)c(C(N)=O)cc1F)C1CCC1` [Example 2-60, 6-(((1R,2S)-2-amino-1-cyclobutylpropyl)amino)-5-fluoro-2-((4-fluorophenyl)amino)nicotinamide], 10 to 50 nM; that for `COc1cc(Nc2nc(N[C@H](c3ccccc3F)[C@H](C)N)c(F)cc2C(N)=O)cc(OC)n1` [Example 2-411, 6-(((1R,2S)-2-amino-1-(2-fluorophenyl)propyl)amino)-2-((2,6-dimethoxypyridin-4-yl)amino)-5-fluoronicotinamide], less than 10 nM. Take `CCC[C@@H](Nc1nc(Nc2cnc(N3CCOCC3)c(F)c2)c(C(N)=O)cc1F)[C@H](C)N` [Example 2-260, 6-(((2S,3R)-2-aminohexan-3-yl)amino)-5-fluoro-2-((5-fluoro-6-morpholinopyridin-3-yl)amino)nicotinamide]: the IC50 lay within 10 to 50 nM. The result for `C[C@H](N)[C@H](Nc1nc(Nc2ccc3c(c2)c(N(C)C)nn3C)c(C(N)=O)cc1F)c1cc(F)cc(F)c1` [Example 2-549, 6-(((1R,2S)-2-amino-1-(3,5-difluorophenyl)propyl)amino)-2-((3-(dimethylamino)-1-methyl-1H-indazol-5-yl)amino)-5-fluoronicotinamide] reads 10 to 50 nM; that for `COc1ccc([C@@H](Nc2nc(Nc3ccc4c(c3)c(N(C)C)nn4C)c(C(N)=O)cc2F)[C@H](C)N)cc1` [Example 2-342, 6-(((1R,2S)-2-amino-1-(4-methoxyphenyl)propyl)amino)-2-((3-(dimethylamino)-1-methyl-1H-indazol-5-yl)amino)-5-fluoronicotinamide], 10 to 50 nM; that for `COCCn1nc(OC(F)F)c2cc(Nc3nc(N[C@H](CC(C)C)[C@H](C)N)c(F)cc3C(N)=O)ccc21` [Example 2-177, 6-(((2S,3R)-2-amino-5-methylhexan-3-yl)amino)-2-((3-(difluoromethoxy)-1-(2-methoxyethyl)-1H-indazol-5-yl)amino)-5-fluoronicotinamide], less than 10 nM.

For `CC(C)C[C@@H](Nc1nc(Nc2cc(F)c3c(c2)c(N(C)C)nn3C)c(C(N)=O)cc1F)[C@H](C)N` [Example 2-190, 6-(((2S,3R)-2-amino-5-methylhexan-3-yl)amino)-2-((3-(dimethylamino)-7-fluoro-1-methyl-1H-indazol-5-yl)amino)-5-fluoronicotinamide], the IC50 is less than 10 nM. As for `Cc1ccc(Nc2nc(N[C@@H]3CCCC[C@@H]3N)c(F)cc2C(N)=O)cc1` [Example 2-435, 6-(((1R,2S)-2-aminocyclohexyl)amino)-5-fluoro-2-(p-tolylamino)nicotinamide], the figure is less than 10 nM; as for `CC[C@@H](Nc1nc(Nc2cnc(OCCOC)c(F)c2)c(C(N)=O)cc1F)[C@H](C)N` [Example 2-117, 6-(((2S,3R)-2-aminopentan-3-yl)amino)-5-fluoro-2-((5-fluoro-6-(2-methoxyethoxy)pyridin-3-yl)amino)nicotinamide], 50 to 100 nM; as for `CCCC[C@@H](Nc1nc(Nc2ccc3c(c2)c(N(C)C)nn3C)c(C(N)=O)cc1F)[C@H](C)N` [Example 2-90, 6-(((2S,3R)-2-aminoheptan-3-yl)amino)-2-((3-(dimethylamino)-1-methyl-1H-indazol-5-yl)amino)-5-fluoronicotinamide], 10 to 50 nM. `COc1cc(Nc2nc(N[C@H](c3ccc(C(F)(F)F)cc3)[C@H](C)N)c(F)cc2C(N)=O)cc(OC)n1` [Example 2-355, 6-(((1R,2S)-2-amino-1-(4-(trifluoromethyl)phenyl)propyl)amino)-2-((2,6-dimethoxypyridin-4-yl)amino)-5-fluoronicotinamide]: the IC50 is less than 10 nM. On to `CCOc1ncc(Nc2nc(N[C@H](CC(C)C)[C@H](C)N)c(F)cc2C(N)=O)cc1-n1ccnn1` [Example 2-199, 6-(((2S,3R)-2-amino-5-methylhexan-3-yl)amino)-2-((6-ethoxy-5-(1H-1,2,3-triazol-1-yl)pyridin-3-yl)amino)-5-fluoronicotinamide], for which the IC50 is less than 10 nM. As for `CCC[C@@H](Nc1nc(Nc2ccc3c(c2)c(N(C)C)nn3CCOC)c(C(N)=O)cc1F)[C@H](C)N` [Example 2-503, 6-(((2S,3R)-2-aminohexan-3-yl)amino)-2-((3-(dimethylamino)-1-(2-methoxyethyl)-1H-indazol-5-yl)amino)-5-fluoronicotinamide], the figure is 10 to 50 nM; as for `CCCC[C@@H](Nc1nc(Nc2cnc(N3CCOCC3)c(F)c2)c(C(N)=O)cc1F)[C@H](C)N` [Example 2-262, 6-(((2S,3R)-2-aminoheptan-3-yl)amino)-5-fluoro-2-((5-fluoro-6-morpholinopyridin-3-yl)amino)nicotinamide], 10 to 50 nM. The result for `CCCC[C@@H](Nc1nc(Nc2cncc3c2cnn3CCOC)c(C(N)=O)cc1F)[C@H](C)N` [Example 2-389, 6-(((2S,3R)-2-aminoheptan-3-yl)amino)-5-fluoro-2-((1-(2-methoxyethyl)-1H-pyrazolo[3,4-c]pyridin-4-yl)amino)nicotinamide] reads 10 to 50 nM; that for `CC[C@@H](Nc1nc(Nc2cnc(NC)c(F)c2)c(C(N)=O)cc1F)[C@H](C)N` [Example 2-276, 6-(((2S,3R)-2-aminopentan-3-yl)amino)-5-fluoro-2-((5-fluoro-6-(methylamino)pyridin-3-yl)amino)nicotinamide], 10 to 50 nM. As for `CCn1ncc2c(Nc3nc(N[C@H](c4cccs4)[C@H](C)N)c(F)cc3C(N)=O)cccc21` [Example 2-509, 6-(((1S,2S)-2-amino-1-(thiophen-2-yl)propyl)amino)-2-((1-ethyl-1H-indazol-4-yl)amino)-5-fluoronicotinamide], the figure is less than 10 nM; as for `C[C@H](N)[C@H](Nc1nc(Nc2ccc3[nH]nc(N(C)C)c3c2)c(C(N)=O)cc1F)C1CC1` [Example 2-494, 6-(((1R,2S)-2-amino-1-cyclopropylpropyl)amino)-2-((3-(dimethylamino)-1H-indazol-5-yl)amino)-5-fluoronicotinamide], less than 10 nM. As to `COC[C@@H](Nc1nc(Nc2ccc3c(c2)c(N(C)C)nn3C)c(C(N)=O)cc1F)[C@H](C)N` [Example 2-120, 6-(((2S,3S)-3-amino-1-methoxybutan-2-yl)amino)-2-((3-(dimethylamino)-1-methyl-1H-indazol-5-yl)amino)-5-fluoronicotinamide], the IC50 is less than 10 nM.

`Cc1cnn(-c2cncc(Nc3nc(N[C@@H](CN)CC(C)C)c(F)cc3C(N)=O)c2)c1` [Example 2-524, (R)-6-((1-amino-4-methylpentan-2-yl)amino)-5-fluoro-2-((5-(4-methyl-1H-pyrazol-1-yl)pyridin-3-yl)amino)nicotinamide]: the IC50 was less than 10 nM. In the case of `CC[C@@H](Nc1nc(Nc2cnc(OCCOC)c(-n3nccn3)c2)c(C(N)=O)cc1F)[C@H](C)N` [Example 2-202, 6-(((2S,3R)-2-aminopentan-3-yl)amino)-5-fluoro-2-((6-(2-methoxyethoxy)-5-(2H-1,2,3-triazol-2-yl)pyridin-3-yl)amino)nicotinamide], the IC50 lay within 50 to 100 nM. As for `C[C@H](N)[C@@H](CC1CC1)Nc1nc(Nc2ccc3nn(C)c(N(C)C)c3c2)c(C(N)=O)cc1F` [Example 2-14, 6-(((2R,3S)-3-amino-1-cyclopropylbutan-2-yl)amino)-2-((3-(dimethylamino)-2-methyl-2H-indazol-5-yl)amino)-5-fluoronicotinamide], the IC50 was 10 to 50 nM.

Turning to `CCn1ncc2ccc(Nc3nc(N[C@H](C(C)C)[C@H](C)N)c(F)cc3C(N)=O)cc21` [Example 2-103, 6-(((2S,3R)-2-amino-4-methylpentan-3-yl)amino)-2-((1-ethyl-1H-indazol-6-yl)amino)-5-fluoronicotinamide], the IC50 was 50 to 100 nM.
